In paper PMC11040118 (Heliyon, 2024):
Read-outs that look alike come from different tables or passages of the source.

Molecular target: T1, Thyroperoxidase (TPO) (Rattus norvegicus, UniProt P14650)
T1 sequence (P14650 32-914): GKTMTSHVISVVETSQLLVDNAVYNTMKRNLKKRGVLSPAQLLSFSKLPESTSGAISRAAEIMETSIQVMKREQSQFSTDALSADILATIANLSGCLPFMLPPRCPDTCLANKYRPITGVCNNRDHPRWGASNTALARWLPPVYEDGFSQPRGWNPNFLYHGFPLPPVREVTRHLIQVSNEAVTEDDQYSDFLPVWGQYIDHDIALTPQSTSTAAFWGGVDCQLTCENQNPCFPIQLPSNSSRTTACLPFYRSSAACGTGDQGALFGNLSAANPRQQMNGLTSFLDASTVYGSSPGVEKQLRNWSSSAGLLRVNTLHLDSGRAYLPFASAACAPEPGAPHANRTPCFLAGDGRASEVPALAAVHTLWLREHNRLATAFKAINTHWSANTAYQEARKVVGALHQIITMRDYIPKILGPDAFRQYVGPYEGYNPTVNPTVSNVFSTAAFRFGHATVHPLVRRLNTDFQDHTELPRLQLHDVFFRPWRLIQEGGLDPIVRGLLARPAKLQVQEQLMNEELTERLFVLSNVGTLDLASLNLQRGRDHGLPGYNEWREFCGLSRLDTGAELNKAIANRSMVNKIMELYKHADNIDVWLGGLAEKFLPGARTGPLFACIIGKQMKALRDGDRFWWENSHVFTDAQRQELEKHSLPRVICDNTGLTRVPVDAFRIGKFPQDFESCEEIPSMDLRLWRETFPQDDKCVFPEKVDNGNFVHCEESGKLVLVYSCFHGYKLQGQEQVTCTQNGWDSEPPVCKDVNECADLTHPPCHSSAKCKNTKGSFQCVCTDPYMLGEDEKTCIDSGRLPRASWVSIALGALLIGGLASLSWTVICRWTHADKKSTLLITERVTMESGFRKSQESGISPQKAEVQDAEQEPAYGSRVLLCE
Assay type: biochemical

[1] = AVG IC50 ± SD, L-Tyr to MIT, rat thyroid microsomes, mean of N = 3 ± SD
[2] = Actual pIC50, in vitro value repeated in Table 2 for comparison with the models
[3] = Log10 Value of AVG IC50, L-Tyr to MIT, from average IC50, Table 1

SMILES | IC50 [1] [nM] | IC50 [2] [nM] | IC50 [3] [nM] | Log10 Value of AVG IC50, L-Tyr to MIT (from average IC50, Table 1) | Actual pIC50 (in vitro value repeated in Table 2 for comparison with the models)
Oc1ccc(OCc2ccccc2)cc1 [4-Benzyloxy phenol, 4-Benzyloxyphenol] | 8760 ± 1360 | 8910 | 8910 | – | –
O=C(O[C@@H]1Cc2c(O)cc(O)cc2O[C@@H]1c1cc(O)c(O)c(O)c1)c1cc(O)c(O)c(O)c1 [Epigallocatechin gallate] | – | – | – | 6.48 | 6.48
O=C(O)c1cc(O)c(O)c(O)c1 [Gallic acid hydrate] | 790 ± 340 | 813 | 813 | – | –
COc1cc(CCC(=O)CC(=O)CCc2ccc(O)c(OC)c2)ccc1O [Tetrahydro curcumin, Tetrahydrocurcumin] | 1510 ± 170 | 1550 | 1550 | – | –
CC[C@H](c1ccc(O)cc1)[C@@H](CC)c1ccc(O)cc1 [Hexestrol] | 7770 ± 2710 | 7940 | 7940 | – | –
COc1cc(/C=C/C(=O)CC(=O)/C=C/c2ccc(O)c(OC)c2)ccc1O [Curcumin] | 1810 ± 430 | 1820 | – | – | –
O=c1c(O)c(-c2ccc(O)cc2)oc2cc(O)cc(O)c12 [Kaemferol, Kaempferol] | 4930 ± 1970 | 5010 | 5010 | – | –
Oc1ccc(/C=C/c2cc(O)cc(O)c2)cc1 [Reservatrol, Resveratrol] | 710 ± 50 | 724 | – | – | –
NC(=S)Nc1ccccc1 [Phenylthiourea] | 2730 ± 690 | 2750 | – | – | –
